From patent US20230330111A1, “ACTIVE AGENT COMBINATION FOR TREATMENT OF CANCER” (HELMHOLTZ ZENTRUM MÜNCHEN - DEUTSCHES FORSCHUNGSZENTRUM FÜR …, priority 2020, published 2023)
“Also recorded” adds a separate entry of the source.

What was measured:
[1] = tested on: HCT116 cells; assay: High-throughput phenotypic screen with NEN co-treatment (FDA-approved and GPCR libraries); format: cell-based; conditions: NEN 1.2 μM, 24 h, FDA-approved drug library and GPCR library
Description: Plate and liquid handling was performed using a HTS platform system composed of a Sciclone G3 Liquid Handler from PerkinElmer (Waltham, MA, USA) with a Mitsubishi robotic arm (Mitsubishi Electric, RV-3511), a MultiFloTM Dispenser (Biotek Instruments, Bad Friedrichshall, Germany) as well as a CytomatTM Incubator (Thermo Fisher Scientific, Waltham, MA, USA). Cell seeding and assays were performed in black 384-well plates (Greiner bio one 384-well μCLEAR®, BLACK, 781091). The plates were coated with poly-D-lysine (Sigma-Aldrich, St. Louis, MA, USA) for 1 h at room temperature to facilitate a better cell adherence. Cells were seeded in 384-well microplates with a cell number of 12,000 cells/well. The signals of the MultiTox-Fluor assays were detected on the EnVision® Multilabel Reader (PerkinElmer, Waltham, MA, USA). The Prestwick Chemical library contains 1,280 small molecule compounds, which are 100% approved drugs (Food and Drug Administration (FDA), European Medicines Agency (EMA) and other agencies). The purity of the compounds was >90% as reported by the provider of the compounds. The GPCR compound library was purchased from MedChem Express (Cat. No.: HY-[…]). The Z' factor was calculated as described by Zhang and colleagues (Zhang, Chung et al., 1999). For screening of the FDA and GPCR small molecule libraries, HCT116 cells were washed with PBS, trypsinized, and resuspended in cell culture medium. The cell suspension (12,000 cells in 50 μl per well) was dispensed into poly-D-lysine pre-coated 384-well plates (Greiner bio one 384-well pCLEAR®, BLACK, 781091) and incubated at 37° C. with 5% CO2. 24 h after seeding, either 5 μl of NEN (negative control), NEN+Nutlin-3a (positive control), or DMSO alone (solvent control) dissolved in cell culture media were dispensed to the assay plate (NEN, final concentration: 1.2 μM; Nutlin-3a, final concentration: 25 μM). In addition, the same day cells were treated either with compound (1 mM stock solution) dissolved in 100% DMSO or DMSO alone. 0.5 μl of compounds/DMSO were transferred to 55 μl cell culture medium per well to keep the final DMSO volume concentration below 1.0%. The cells were then incubated (37° C.; 5% CO2) for 24 h prior to adding 50 μl MultiTox-Fluor Multiplex Cytotoxicity Assay reagent (Promega). Live-cell fluorescence (excitation=400 nm; emission=505 nm) and dead-cell fluorescence (excitation=485 nm; emission=520 nm) were recorded with an EnVision multilabel reader (PerkinElmer, Waltham, USA). The ratio for live/dead was calculated and normalized to the negative/vehicle control. For hit selection a threshold of lower than 3 standard deviations from the median of the negative/vehicle population was set.

[2] = tested on: BxPC3 cells; assay: Cell death / ratio of toxicity and viability in BxPC3 (monolayer); format: cell-based; conditions: for cell death / toxicity (ratio of toxicity and viability): BxPC3, NEN 1.2 μM, FCCP 2.5 μM, 2-DG 100 mM, Domp, Imi, Desi, Ami 30 μM, Clomi 20 μM
Description: (§1) HCT116, BxPC3 and U87 cell lines were maintained in Dulbecco's modified Eagle's medium (DMEM) (Gibco) supplemented with 10% fetal bovine serum (FBS; Millipore) and Penicilin/Streptomycine (Life Tehnologies), and cultured at 37° C., 5% CO2 and 95 humidity. For spheroid formation, 10000 cells were plated in ultra-low attachment plates (Fisher Scientific), centrifuged at 850 G for 10 min and incubated for 3 days until treatment, with medium change every 3 days.
(§2) To determine drug induced toxicity in spheroid cultures, the Promega CellToXGreen and RealTime-Glo™ MT Cell Viability kits were used according to the manufacturers protocols. Briefly, Toxicity and viability dyes were mixed with cell culture medium and added prior to drug treatment. Fluorescence and luminescence were measured over the course of 3 days on a Thermo Fisher Varioskan Lux plate reader.
(§3) For Caspase 3/7 activity and general cytotoxicity in 2D cell culture the Apo One Homogenous Caspase-3/7 Assay and Multitox Fluor assays were employed respectively, according to the manufacturers protocol. Cells were seeded in 96-wells one day prior to treatment and incubated 24-48 h before assaying.

[3] = tested on: U87 cells; assay: Cell death / ratio of toxicity and viability in U87 (spheroids); format: cell-based; conditions: for cell death / toxicity (ratio of toxicity and viability): U87, NEN 1.2 μM, FCCP 2.5 μM, 2-DG 100 mM, Domp, Imi, Desi, Ami 30 μM, Clomi 20 μM; for attenuation of cell death induced by NEN drug combinations: U87 spheroids, ISRIB 1 μM or Cyclodextrin 0.75%
Description: as §1, §2, §3

[4] = tested on: HCT116 cells; assay: Cell death / ratio of toxicity and viability in HCT116 (monolayer and spheroids); format: cell-based; conditions: for cell death / toxicity (ratio of toxicity and viability): HCT116, 2D or 3D spheroids, NEN 1.2 μM, FCCP 2.5 μM, 2-DG 100 mM, Domp, Imi, Desi, Ami 30 μM, Clomi 20 μM; for attenuation of cell death induced by NEN drug combinations: HCT116 monolayer or spheroids, ISRIB 1 μM or Cyclodextrin in medium
Description: as §1, §2, §3

[5] = tested on: preclinical tumor rodent models; conditions: single drug; background art; cited from earlier work
[6] = tested on: ATF4, CHOP and Gadd34; assay: qPCR of ISR genes; format: cell-based; conditions: HCT116; for ISR marker gene expression (ATF4, CHOP, Gadd34 mRNA): NEN 1.2 μM, Domp and TCAs 30 μM, Clomi 20 μM
Excerpt: RNA was isolated using the Qiagen […] kit following the manufacturers protocol and reverse transcribed using the Quantitect reverse transcription kit (Qiagen). cDNA was amplified using the PowerUp SYBRGreen mastermix (LifeTechnologies), the following primers and an Applied Biosystems Quantstudio 6 cycler. RNA expression data were normalized to the level of beta-actin expression.

[7] = tested on: HCT116 cells; assay: Caspase 3/7 activity in HCT116; format: cell-based; conditions: HCT116, 1% serum, NEN 1.2 μM, 18 h
Excerpt: For Caspase 3/7 activity and general cytotoxicity in 2D cell culture the Apo One Homogenous Caspase-3/7 Assay and Multitox Fluor assays were employed respectively, according to the manufacturers protocol. […]

[8] = tested on: PDO-48 organoids; assay: Paclitaxel sensitization in PDO-48 organoids; format: cell-based, human; conditions: triple combination with NEN and TCAs vs Paclitaxel alone
Description: (§4) Primary patient-derived PDAC (Pancreatic ductal adenocarcinoma) three-dimensional (3D) organoids were generated from primary resected human PDAC surgical specimen according to the “Tuveson protocol” described in (Tiriac et al., 2018) and in the methods and extended methods sections of a publication by the group of Hans Clevers (Driehuis et al., 2019). Generation and culturing of primary-dispersed human PDAC cells was performed as recently described (Biederstadt et al., 2020). Written informed consent from the patients for research purposes was obtained prior to the investigation.
as §2
(§5) To investigate the efficacy of targeting the described metabolic stress response in a more heterogeneous cancer cell population, which better reflect the tumor biology, cultures of primary tumor-derived organoids from two patients with pancreatic cancer have been used. Organoids were seeded at a density of 1000 cells per well and let grow for 7 days prior to treatment.

[9] = tested on: B42 organoids; assay: Paclitaxel sensitization in B42 organoids; format: cell-based, human; conditions: triple combination with NEN and TCAs vs Paclitaxel alone
Description: as §4, §2, §5

[10] = tested on: UPP1; assay: UPP1 expression (immunoblot, qPCR) in HCT116; format: cell-based; conditions: ISRIB 1 μM with NEN 1.2 μM + Domperidone 30 μM
Description: Cells were lysed at 4° C. in 100 μl of RIPA buffer (Sigma-Aldrich) containing protease (Roche 11697498001) and phosphatase (Roche 04906837001) inhibitors, and sonicated. Cell extracts were centrifuged 14000×RPM for 5 min 4° C. and the supernatant collected to protein concentration determination with BCA protein assay (Pierce 23225). 10-20 μg of total protein were subjected to SDS-PAGE electrophoresis, and after transfer, membranes were blocked (1 h) and incubated overnight at 4° C. with primary antibodies. After secondary antibody incubation for 1 h at room temperature, signals were visualized by Chemidoc Image System (BioRad) and ImageLab software.
RNA was isolated using the Qiagen RNAesay kit following the manufacturers protocol and reverse transcribed using the Quantitect reverse transcription kit (Qiagen). cDNA was amplified using the PowerUp SYBRGreen mastermix (LifeTechnologies), the following primers and an Applied Biosystems Quantstudio 6 cycler. RNA expression data were normalized to the level of beta-actin expression.

[11] = compared with its analogue Trimipramine; cited from earlier work
[12] = tested on: glioblastoma and small-cell lung cancer (SCLC); conditions: cited from earlier work

CNCCCN1c2ccccc2CCc2ccccc21 [Desipramine]
hit in screen (cell death in NEN co-treated but not vehicle treated cells) [1]: represented with several compounds in both screens

O=CC[C@@H](O)[C@H](O)[C@H](O)CO [2-DG, 2-deoxyglucose]
cell death / toxicity (ratio of toxicity and viability) [2]: but not 2-DG alone caused significant cell death | cell death / toxicity (ratio of toxicity and viability) [3]: but not 2-DG alone caused significant cell death | cell death / toxicity (ratio of toxicity and viability) [4]: but not 2-DG alone caused significant cell death

NCCO.O=C(Nc1ccc([N+](=O)[O-])cc1Cl)c1cc(Cl)ccc1O [NEN, niclosamide ethanolamine]
cell death / toxicity (ratio of toxicity and viability) [2]: did not cause significant toxicity | anti-tumor efficacy [5]: anti-tumor efficacy in a variety of preclinical tumor rodent models | ISR marker gene expression (ATF4, CHOP, Gadd34 mRNA) [6]: modest increase in ISR marker gene expression | cell death / toxicity (ratio of toxicity and viability) [3]: did not cause significant toxicity | cell death / toxicity (ratio of toxicity and viability) [4]: did not cause significant toxicity | cell death (caspase activity) under low serum [7]: caused significant cell death

N#CC(C#N)=NNc1ccc(OC(F)(F)F)cc1 [FCCP, Carbonyl cyanide-p-trifluoromethoxyphenylhydrazone]
cell death / toxicity (ratio of toxicity and viability) [2]: did not cause significant toxicity | cell death / toxicity (ratio of toxicity and viability) [3]: did not cause significant toxicity | cell death / toxicity (ratio of toxicity and viability) [4]: did not cause significant toxicity

O=c1[nH]c2ccccc2n1CCCN1CCC(n2c(=O)[nH]c3cc(Cl)ccc32)CC1 [Domperidone]
hit in screen (cell death in NEN co-treated but not vehicle treated cells) [1]: scored as hit in both screens; also recorded: one of the top hits in both screens | ISR marker gene expression (ATF4, CHOP, Gadd34 mRNA) [6]: modest increase in ISR marker gene expression

CC(=O)O[C@H]1C(=O)[C@@]2(C)[C@H]([C@H](OC(=O)c3ccccc3)[C@]3(O)C[C@H](OC(=O)[C@H](O)[C@@H](NC(=O)c4ccccc4)c4ccccc4)C(C)=C1C3(C)C)[C@]1(OC(C)=O)CO[C@@H]1C[C@@H]2O [Paclitaxel]
increase in effectiveness in inducing organoid cell death [8]: approximately ten | increase in effectiveness in inducing organoid cell death [9]: up to 100 times

O=C(Nc1ccc([N+](=O)[O-])cc1Cl)c1cc(Cl)ccc1O [niclosamide]
anti-tumor efficacy [5]: anti-tumor efficacy in a variety of preclinical tumor rodent models; also recorded: only minor therapeutic efficacy

CC(CN(C)C)CN1c2ccccc2CCc2ccccc21 (centres unmarked) [Trimipramine]
hit in screen (cell death in NEN co-treated but not vehicle treated cells) [1]: represented with several compounds in both screens

Cyclodextrin [CD]
attenuation of cell death induced by NEN drug combinations [3]: partially prevented cell death induction | attenuation of cell death induced by NEN drug combinations [4]: CD concentration-dependent suppression of cell death

CN(C)CCCN1c2ccccc2CCc2ccc(Cl)cc21 [Clomipramine]
hit in screen (cell death in NEN co-treated but not vehicle treated cells) [1]: represented with several compounds in both screens

O=C(COc1ccc(Cl)cc1)NC1CCC(NC(=O)COc2ccc(Cl)cc2)CC1 (centres unmarked) [ISRIB]
attenuation of cell death induced by NEN drug combinations ([2]; BxPC3 monolayer, 48 h): attenuated cell death induction | effect on drug-induced CHOP, Gadd34 and ATF4 expression ([6]; ISRIB 1 μM with NEN 1.2 μM + Domperidone 30 μM): prevented the induction of CHOP and of its target gene Gadd34, but did not decrease ATF4 expression significantly | effect on drug-induced UPP1 upregulation [10]: prevented the drug-induced UPP1 upregulation | attenuation of cell death induced by NEN drug combinations [3]: attenuated cell death induction | attenuation of cell death induced by NEN drug combinations [4]: attenuated cell death induction

CN(C)CCCN1c2ccccc2CCc2ccccc21 [Imipramine]
water solubility [11]: higher water solubility | efficacy in preclinical mouse models [12]: proven efficacy against glioblastoma and small-cell lung cancer (SCLC) in preclinical mouse models
